Our source for the IC50 and Ki values is patent US20040024024A1, “Aromatic sulfone hydroxamates and their use as protease inhibitors” (priority 2001, published 2004).

By IC50 is commonly meant the concentration at which inhibition is half-maximal. A word on the Ki: it is the equilibrium dissociation constant of an inhibitor or competing ligand from its target.

Type in all cases: biochemical
Assay [1] addresses T1, Human recombinant MMP-9 (Homo sapiens, UniProt P14780).
T1 construct: made in house; host or cells: MMP-9-transfected HT1080 cells (spent media)
As to the kind of experiment: In vitro MMP inhibition, IC50 determination (fluorogenic substrate I). In a few lines: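 MMP-9 proenzyme purified from transfected HT1080 cell media, activated with APMA or trypsin. Compound dilutions in pH 7.5 Tris/NaCl/CaCl2 buffer with 0.05% polyoxyethylene 23 lauryl ether, incubated at room temperature with 4 μM MCA/Dpa substrate I. IC50 from fluorescence loss (ex 328, em 415 nm) versus inhibitor concentration.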

Assay [2] has as its target T2, Human recombinant MMP-13 (Homo sapiens, UniProt P45452).
T2 construct: made in house; host or cells: baculovirus / insect cells
The assay is described as above. The gist of the method: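 Fluorescence at 415 nm (excitation 328 nm) reports Gly-Leu cleavage of 4 μM quenched methoxycoumarin peptide substrate I. Human recombinant MMP-13, activated by trypsin or APMA, was incubated at room temperature with varied inhibitor concentrations in pH 7.5 Tris/NaCl/CaCl2 buffer; IC50 derived from reduced fluorescence.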

The target of assay [3] is T3, Human recombinant MMP-2 (Homo sapiens, UniProt P08253).
T3 construct: made in house; host or cells: MMP-2-transfected p2AHT2 cells
T3 sequence (P08253 110-660): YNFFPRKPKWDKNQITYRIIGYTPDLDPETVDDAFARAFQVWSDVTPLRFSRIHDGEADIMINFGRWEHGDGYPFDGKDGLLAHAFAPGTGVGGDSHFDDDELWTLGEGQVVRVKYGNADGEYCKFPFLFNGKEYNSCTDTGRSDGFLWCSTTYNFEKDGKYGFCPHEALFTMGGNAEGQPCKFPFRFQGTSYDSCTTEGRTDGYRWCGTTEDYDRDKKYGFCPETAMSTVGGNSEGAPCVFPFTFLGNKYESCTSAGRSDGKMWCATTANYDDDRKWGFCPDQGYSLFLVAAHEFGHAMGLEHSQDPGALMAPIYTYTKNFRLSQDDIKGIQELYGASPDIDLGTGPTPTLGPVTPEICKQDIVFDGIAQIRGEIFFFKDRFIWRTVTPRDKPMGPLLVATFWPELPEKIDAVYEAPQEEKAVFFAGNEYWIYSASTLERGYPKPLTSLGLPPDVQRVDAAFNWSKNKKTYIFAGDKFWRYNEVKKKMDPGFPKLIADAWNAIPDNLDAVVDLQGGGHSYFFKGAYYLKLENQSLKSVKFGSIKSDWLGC
As to the kind of experiment: In vitro MMP inhibition, Ki determination (fluorogenic substrate II). On the procedure: Several hydroxamates and salts thereof were analyzed in in vitro assays to determine their ability to inhibit the MMP cleavage of peptide substrates. Inhibition (Ki) and IC50 constants were calculated from the assayed hydroxamate-MMP interactions.
Human recombinant MMP-1, MMP-2, MMP-9, MMP-13, and MMP-14 were used in this assay. All enzymes were prepared in Assignee's laboratories following usual laboratory procedures. Protocols for the preparation and use of these enzymes are available in the scientific literature. See, e.g., Enzyme Nomenclature (Academic Press, San Diego, Calif., 1992) (and the citations therein). See also, Frije et al., J. Biol. Chem., 26(24), 16766-73 (1994).
The MMP-2 proenzyme was purified by gelatin Sepharose chromatography from MMP-2-transfected p2AHT2 cells provided by Dr. Gregory Goldberg of Washington University (St. Louis, Mo.).
All MMPs were activated using 4-aminophenylmercuric acetate (“APMA”, Sigma Chemical, St. Louis, Mo.) or trypsin. MMP-9 also was activated using human recombinant MMP-3 (purified in Assignee's laboratory following standard cloning and purification techniques).
Two fluorogenic, methoxycoumarin-containing polypeptide substrates were used in the MMP inhibition assays:
MCA-ArgProLeuGlyLeuDpaAlaArgGluArgNH2 (II)
Here, “Dpa” is 3-(2,4-dinitrophenyl)-L-2,3-diaminopropionyl group, and “MCA” is 7-methoxycoumarin-4-yl acetyl. Substrate (I) was purchased from Baychem (Redwood City, Calif.), and substrate II was prepared Assignee's laboratory. Substrate I was used in the IC50 determination assays, while substrate II was used in the Ki determination assays. In the absence of MMP inhibitory activity, either substrate is cleaved at the Gly-Leu peptide bond. This cleavage separates the highly fluorogenic peptide from the 2,4-dinitrophenyl quencher, thus resulting in increase of fluorescent intensity.
The stock solutions of the assayed hydroxamates (or salts thereof) were prepared in 1% dimethyl sulfoxide (DMSO). These stock solutions were diluted in Buffer A (100 mM Tris-HCl, 100 mM NaCl, 10 mM CaCl2, 0.05% polyoxyethylene 23 lauryl ether, pH 7.5) to obtain solutions with different hydroxamate concentrations, i.e., assay solutions with different concentrations of the assayed MMP inhibitory compound. The experiment controls contained the same amount of Buffer A/DMSO as the assayed sample, but contained no hydroxamate (or salt thereof).
The assays from which the Ki determinations were made were performed as follows. The assayed hydroxamate samples were incubated in separate wells of untreated white polystyrene plates (Nunc Nalgene International, Rochester, N.Y.), and analyzed on a Tecan SpectraFlour Plus plate reader. The excitation wavelength was 330 nm, and the emission wavelength—420 nm. All samples (assayed hydroxamates and controls) were incubated in separate plate wells at room temperature for 1 hr in the presence of 4 μM of MMP substrate (II). In the absence of MMP inhibitory activity, substrate II was cleaved at the Gly-Leu bond resulting in an increase of relative fluorescence. Inhibition was observed as a reduced rate of this increase in relative fluorescence. The various hydroxamates were analyzed using a single low enzyme concentration with a single substrate concentration fixed at or below the Km. This protocol is a modification of method by Knight et al., FEBS Lett., 296(3), 263-266 (1992). Apparent inhibitory constants were determined by non-linear regression of reaction velocity as a function of inhibitor and enzyme concentration using Morrison's equation, as described by Kuzmic, Anal. Biochem. 286, 45-50 (2000). […] Since the substrate concentration was chosen to be at or below the Km, the apparent Ki's from this analysis were reported as Ki's without correction for the influence of substrate.

T1 sequence (P14780 107-707 limits assumed): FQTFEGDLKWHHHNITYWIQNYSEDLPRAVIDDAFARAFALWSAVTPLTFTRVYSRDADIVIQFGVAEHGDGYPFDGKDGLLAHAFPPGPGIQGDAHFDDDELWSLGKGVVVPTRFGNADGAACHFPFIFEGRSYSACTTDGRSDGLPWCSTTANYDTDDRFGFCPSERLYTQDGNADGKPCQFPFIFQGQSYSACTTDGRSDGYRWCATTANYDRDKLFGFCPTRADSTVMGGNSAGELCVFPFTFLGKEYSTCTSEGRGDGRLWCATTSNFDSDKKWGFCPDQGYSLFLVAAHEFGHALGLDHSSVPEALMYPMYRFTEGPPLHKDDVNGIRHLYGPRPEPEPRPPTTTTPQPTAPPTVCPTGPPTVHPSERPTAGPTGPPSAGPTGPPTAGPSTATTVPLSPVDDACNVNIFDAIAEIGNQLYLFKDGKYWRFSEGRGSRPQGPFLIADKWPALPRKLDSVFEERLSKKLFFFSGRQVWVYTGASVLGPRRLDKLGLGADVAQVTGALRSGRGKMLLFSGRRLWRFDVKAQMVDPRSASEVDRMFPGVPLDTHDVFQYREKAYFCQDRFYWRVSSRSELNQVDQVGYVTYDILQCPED

For `O=C(CCCOc1ccc(S(=O)(=O)C2(C(=O)NO)CCOCC2)cc1)Nc1ccc(OC(F)(F)F)cc1` [Example 250], the IC50 came to 22.5 nM in assay [1] (value outside parenthesis) and 0.3 nM in assay [2] (value outside parenthesis). Further, the Ki in assay [3] (value in parenthesis) came out at 3.12 nM.

For the molecule `Cc1cc(NC(=O)CCCOc2ccc(S(=O)(=O)C3(C(=O)NO)CCOCC3)cc2)ccc1OC(C)C` [Example 290], the IC50 in assay [1] (value outside parenthesis) was over 10000 nM; in assay [2] (value outside parenthesis) it was 1.1 nM. For the same molecule, the Ki in assay [3] (value in parenthesis) worked out at 1010 nM.

With `O=C(NO)C1(S(=O)(=O)c2ccc(OCCCc3cncc(-c4ccc(F)cc4)c3)cc2)CCOCC1` [Example 523], the IC50 in assay [1] (value outside parentheses) was determined as 1650 nM; in assay [2] (value outside parentheses) it was 0.3 nM. For the same molecule, the Ki in assay [3] (value in parentheses) amounted to 197 nM.

In the case of `O=C(NO)C1(S(=O)(=O)c2ccc(OCCCc3cncc(-c4ccccc4)c3)cc2)CCOCC1` [Example 524], the IC50 in assay [1] (value outside parentheses) came out at 1840 nM; in assay [2] (value outside parentheses), 0.2 nM. Also, the Ki in assay [3] (value in parentheses) amounted to 51.8 nM.

In the case of `O=C(NO)C1(S(=O)(=O)c2ccc(OCCCc3cc(-c4ccc(F)cc4F)cs3)cc2)CCOCC1` [Example 587], the figures for the IC50 in assay [1] (value outside parentheses) and in assay [2] (value outside parentheses) were 1370 nM and 0.1 nM, respectively. For the same molecule, in assay [3] (value in parentheses), the Ki was found to be 125 nM.

Take `O=C(NO)C1(S(=O)(=O)c2ccc(OCCCc3cccc(-c4cccs4)c3)cc2)CCOCC1` [Example 595]: the values for the IC50 in assay [1] (value outside parentheses) and in assay [2] (value outside parentheses) were 1730 nM and 1 nM, respectively. For the same molecule, in assay [3] (value in parentheses), the Ki stood at 586 nM.

`O=C(Cc1csc2ccccc12)NCCOc1ccc(S(=O)(=O)C2(C(=O)NO)CCOCC2)cc1` [Example 596]: the IC50 in assay [1] (value outside parentheses) was found to be 194 nM; in assay [2] (value outside parentheses) it was 2.7 nM. Besides, the Ki in assay [3] (value in parentheses) is 11.2 nM.

Regarding `O=C(NCCOc1ccc(S(=O)(=O)C2(C(=O)NO)CCOCC2)cc1)c1cc2ccccc2[nH]1` [Example 599], the IC50 was 11.6 nM in assay [1] (value outside parentheses) and 0.1 nM in assay [2] (value outside parentheses). In assay [3] (value in parentheses), the Ki worked out at 0.38 nM.

For the molecule `O=C(NO)C1(S(=O)(=O)c2ccc(OCCCc3cc(-c4ccc(OC(F)(F)F)cc4)cs3)cc2)CCOCC1` [Example 608], the IC50 worked out at 1790 nM in assay [1] (value outside parentheses) and 6.6 nM in assay [2] (value outside parentheses). Besides, the Ki in assay [3] (value in parentheses) came out at 724 nM.

Consider `N#Cc1ccc(-c2cccc(CCCOc3ccc(S(=O)(=O)C4(C(=O)NO)CCOCC4)cc3)c2)cc1` [Example 624], for which the figures for the IC50 in assay [1] (value outside parentheses) and in assay [2] (value outside parentheses) were 1030 nM and 0.3 nM, respectively. In assay [3] (value in parentheses), the Ki was 623 nM.

On to `O=C(NO)C1(S(=O)(=O)c2ccc(OCCCc3cccc(-c4ccc([N+](=O)[O-])cc4)c3)cc2)CCOCC1` [Example 626], for which the figures for the IC50 in assay [1] (value outside parentheses) and in assay [2] (value outside parentheses) were 885 nM and 0.4 nM, respectively. Besides, the Ki in assay [3] (value in parentheses) was determined as 645 nM.

With `O=C(NO)C1(S(=O)(=O)c2ccc(OCCCc3cccc(-c4ccc5c(c4)OCO5)c3)cc2)CCOCC1` [Example 628], the IC50 in assay [1] (value outside parentheses) was 1750 nM; in assay [2] (value outside parentheses), 3.3 nM. In assay [3] (value in parentheses), the Ki was 2750 nM.

Consider `O=C(NO)C1(S(=O)(=O)c2ccc(OCCCc3cccc(-c4ccc(F)cc4F)c3)cc2)CCOCC1` [Example 630], for which the values for the IC50 in assay [1] (value outside parentheses) and in assay [2] (value outside parentheses) were 5990 nM and 0.4 nM, respectively. In addition, the Ki in assay [3] (value in parentheses) stood at 2070 nM.
